Measured values taken from paper PMC8976073 (Nature Communications, 2022).
Residue numbers refer to the chain shown, from its start.

Tests used:
[1] = target: T1, FPR2 (Homo sapiens, UniProt P25090); test: Inositol-phosphate (IP) accumulation assay, FPR2 (wild type and mutants) with chimeric GαΔ6qi4myr in HEK293F cells; type: cell-based; conditions: FPR2 WT; mean ± SEM; SEM
T1 construct: expressed in transfected cells; host or cells: HEK293F cells, pTT5 vector, co-transfected with GαΔ6qi4myr (1:2 w/w)
T1 sequence (P25090 1-351): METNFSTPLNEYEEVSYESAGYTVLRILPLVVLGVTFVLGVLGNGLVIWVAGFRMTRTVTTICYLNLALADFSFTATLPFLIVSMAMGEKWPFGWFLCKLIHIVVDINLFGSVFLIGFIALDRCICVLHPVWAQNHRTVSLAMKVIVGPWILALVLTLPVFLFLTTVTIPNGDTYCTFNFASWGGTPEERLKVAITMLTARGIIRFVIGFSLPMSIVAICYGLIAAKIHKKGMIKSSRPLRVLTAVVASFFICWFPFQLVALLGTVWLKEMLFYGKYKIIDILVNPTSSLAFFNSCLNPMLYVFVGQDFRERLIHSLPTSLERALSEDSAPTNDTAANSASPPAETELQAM
Method: (§1) Flag-tagged wild-type FPR1 and FPR2 and mutants were cloned into the pTT5 vector and expressed in HEK293F cells. Cells were cotransfected with the plasmids of receptor and a chimeric Gα protein GαΔ6qi4myr, which redirects the Gαi signaling pathway to the Gαq phospholipase-C pathway, at a ratio of 1:2 (w/w), and were harvested 48 h post transfection. The cell-surface expression was measured as described above.
(§2) The IP-One Gq assay kit (Cisbio Bioassays, 62IPAPEB) was used to measure the peptide agonist-induced IP production. […] Then, the cells were supplemented with 3 μl cryptate-labeled anti-IP1 monoclonal antibody (1:20 diluted in lysis and detection buffer) and 3 μl d2-labeled IP1, and incubated at room temperature for another 1 h. […] The accumulation of IP1, EC50, and pEC50 were calculated using nonlinear regression (curve fit) according to a standard dose–response curve in GraphPad Prism 8.0 (GraphPad software).

[2] = target: T2, FPR2 (Homo sapiens, UniProt P25090, F110A); test: as above; type: cell-based; conditions: FPR2 F110A
T2 construct: expressed in transfected cells; host or cells: HEK293F cells, pTT5 vector, co-transfected with GαΔ6qi4myr (1:2 w/w)
T2 sequence (P25090 1-351 F110A): T1 sequence (P25090 1-351) with F110A
Method: as §1, §2

CC[C@H](C)[C@H](NC(=O)[C@H](CCC(=O)O)NC(=O)[C@H](CO)NC(=O)[C@@H](NC(=O)[C@H](CC(C)C)NC(=O)[C@H](CC(C)C)NC(=O)[C@H](CC(C)C)NC(=O)[C@H](CC(C)C)NC(=O)[C@H](CS)NC(=O)[C@H](CO)NC(=O)[C@H](Cc1ccccc1)NC(=O)CNC(=O)[C@H](CCCNC(=N)N)NC(=O)[C@@H]1CCCN1C(=O)[C@H](C)NC(=O)[C@H](CCSC)NC=O)[C@@H](C)O)C(=O)N[C@@H](CC(=O)O)C(=O)N[C@@H](CC(C)C)C(=O)N1CCC[C@H]1C(=O)N[C@H](C(=O)N[C@@H](CCCCN)C(=O)N[C@@H](CCCNC(=N)N)C(=O)N[C@@H](CCCNC(=N)N)C(=O)N[C@@H](C)C(=O)O)C(C)C [fHN, N-formyl humanin]
EC50 [1]: 126 nM | EC50 [2]: 110 nM
